According to patent publication US4500525A, “Pharmacologically active pyrazolo/4,3-c/pyridines” (Gruppo Lepetit S.p.A., priority 1982, dated 1985):
Structures can show the parent of a compound that is named as a salt. Blank lines part the entries; values can stand above or below the molecule they belong to.

Experiments:
renal hypertensive dogs = assay: lowering of blood pressure in renal hypertensive dogs; assay type: in vivo, dog
Method: In renal hypertensive dogs, preparated essentially according to H. Golblatt, J. Linch. and R. F. Manzal, J. Exp. Med. 59, 347 (1934), some of the compounds of the invention show a considerable lowering of the systolic blood pressure without affecting the heart rate to a great extent.
The test compounds are administered orally and the pressure is measured according to the method of H. Friebel, E. Vrenden, Arch. Exp. Phat. Pharmak. 232, 419 ([…]).
In the above test system the compound of example 100 determines a 20% drop of the blood pressure when administered 0.5 mg/kg p.o., the compound of example 106 determines a 22% drop when administered 1 mg/kg p.o., the compounds of Examples 134 and 135 determine a drop of 34% and 25%, respectively, when administered 5 mg/kg p.o., and the compound of example 107 determines a 43% drop of the blood pressure when administered 10 mg/kg p.o.

α1 adrenoceptor = assay: displacement of ^3 H-prazosin specifically bound in rat brain homogenate (radioligand binding); conditions: ^3 H Prazosin binding, Ki calculated from IC50, read-out: K1 (nM) ^3 H Prazosin
Method: The compounds of the invention were tested […] for their ability to compete with labelled ligands of α1, α2 -adrenergic,and dopaminergic receptors. Said tests were made essentially following:
(b) the method described by P. Greengrass et al., European Journal of Pharmacology, Vol. 55, pp. 323-326, (1979), which uses the specific displacement of ^3 H-prazosin specifically bound in rat brain homogenate, for the identification of substances interacting with the so called "α1 "adrenoceptor;
The above mentioned methods are radioligand binding assays and are based on the knowledge that many natural or synthetic physiologically active substances such as neurotransmitters, hormones, and others, specifically link to cellular receptors, generally of proteic nature. They are generally obtained from a tissue or organ of a suitable test-animal after isolation and homogenization of said tissue or organ.
The homogenate is twice centrifugated to separate and partially purify the receptorial fraction (synaptosomes).
The labelled substances employed are known to specifically bind their receptors, so the drug-receptor dissociation constants obtained for each test compound under standard conditions are a measure of their actual binding affinities. The validation of the above methods in predicting a possible pharmacological activity was carried out comparing the in vitro binding constants of a number of […] agonist or antagonist of the adrenergic or dopaminergic system with their in vivo activities. The α1 -adrenergic activity is essentially correlated with a peripheral vasodilatation. The α2 -adrenergic activity is essentially correlated with a hypotensive action of central origin, and the dopaminergic activity is correlated with a neuroleptic action. IC50 values, defined as the drug concentration that cause 50% inhibition of the specific ^3 H ligant binding, are observed by incubating from 5 to 7 different dilutions of the tested compound in duplicate or triplicate. Ki, inhibition constant, values are calculated from the following formula: [formula] wherein IC50 is defined as above, C is the concentration of the ^3 H ligand, and KD is the dissociation constant of the ^3 H ligand-receptor complex.

mice = assay: pole climbing avoidance test; assay type: in vivo; conditions: i.p., treated/untreated mice
Source text: The neuroleptic activity of the compounds of the invention was investigated by means of the "pole climbing avoidance test", as described by L. Cook et al. (Ann. N.Y. Acad. Sci. 66, 740, 1957) and subsequently modified by Maffii et al. (J. Pharm. Pharmac., 11, 129, 1959). As a representative example, the compound of example 38 scores as follows in the above test:
The symbols CR, CR2, and UR corresponds to the primary, secondary conditioned response and to the unconditioned response according to the above test.

[1] = positive inotropic activity in conventional in vitro tests (isolated preparation)
[2] = tested on: spontaneously hypertensive rat; assay: lowering of arterial pressure in the spontaneously hypertensive rat; assay type: in vivo; conditions: p.o. 50 mg/kg
Method: Journal, Vol. 27, p. 282, (1963). The arterial pressure was evaluated according to H. Fribel, E. Vredom, described in Arch. Exp. Phat. Pharmak. Vol. 232, p. 416, (1958). […] This 15% threshold is generally considered predictive of significant antihypertensive activity.

Compound: Fc1ccc(Cn2nc(-c3ccc(F)cc3)c3c2CCNC3)cc1 [Example 106]
drop of the blood pressure (renal hypertensive dogs; 1 mg/kg p.o.): 22%
Ki (α1 adrenoceptor): 0.331 nM

Compound: CN1CCc2[nH]nc(-c3ccc(F)cc3)c2C1 [Example 38, 3-(4-fluorophenyl)-5-methyl-4,5,6,7-tetrahydro-1H-pyrazolo/4,3-c/pyridine]
CR2 (secondary conditioned response) (mice; 10 mg/kg): 9/10
CR (primary conditioned response) (mice; 10 mg/kg): 3/10
UR (unconditioned response) (mice; 10 mg/kg): 0/10
CR2 (secondary conditioned response) (mice; 25 mg/kg): 10/10
CR (primary conditioned response) (mice; 25 mg/kg): 8/10
UR (unconditioned response) (mice; 25 mg/kg): 0/10

Compound: Cc1ccc(Cn2nc(-c3ccc(F)cc3)c3c2CCNC3)cc1 [Example 107, 3-(4-fluorophenyl)-1-(4-methylphenylmethyl)-4,5,6,7-tetrahydro-1H-pyrazolo/4,3-c/pyridine, methanesulfonate]
drop of the blood pressure (renal hypertensive dogs; 10 mg/kg p.o.): 43%
Ki (α1 adrenoceptor): 23.6 nM

Compound: CCn1nc(-c2cccs2)c2c1CCNC2 [Example 102, 1-ethyl-3-(2-thienyl)-4,5,6,7-tetrahydro-1H-pyrazolo/4,3-c/pyridine, methanesulfonate]
positive inotropic activity [1]: good positive inotropic activity
antagonism of the inotropic activity by propanolol (β-adrenergic effects) ([1]; propanolol): not antagonized by propanolol

Compound: Fc1ccc(-c2nn(Cc3ccccc3)c3c2CNCC3)cc1 [Example 100, 3-(4-fluorophenyl)-1-phenylmethyl-4,5,6,7-tetrahydro-1H-pyrazolo/4,3-c/pyridine, hydrochloride]
drop of the blood pressure (renal hypertensive dogs; 0.5 mg/kg p.o.): 20%
Ki (α1 adrenoceptor): 14.7 nM
lowering of the pressure [2]: 30%

Now from value to molecule, other results behind:

Ki (α1 adrenoceptor): 47.2 nM
Compound: Cc1ccc(Cn2nc(-c3ccc(F)cc3)c3c2CCN(C)C3)cc1 [Example 135, 3-(4-fluorophenyl)-1-(4-methylphenylmethyl)-5-methyl-4,5,6,7-tetrahydro-1H-pyrazolo/4,3-c/pyridine, methanesulfonate]
drop of the blood pressure (renal hypertensive dogs; 5 mg/kg p.o.): 25%

Ki (α1 adrenoceptor): 6.35 nM
Compound: CN1CCc2c(c(-c3ccc(F)cc3)nn2Cc2ccc(F)cc2)C1 [Example 134, 3-(4-fluorophenyl)-1-(4-fluorophenylmethyl)-5-methyl-4,5,6,7-tetrahydro-1H-pyrazolo/4,3-c/pyridine, hydrochloride]
drop of the blood pressure (renal hypertensive dogs; 5 mg/kg p.o.): 34%

Ki (α1 adrenoceptor): 18.3 nM
Compound: CCCCCn1nc(-c2ccc(F)cc2)c2c1CCN(C)C2 [Example 150, 3-(4-fluorophenyl))-4,5,6,7-tetrahydro-5-methyl-1-n.pentyl-1H-pyrazolo/4,3-c/pyridine, methanesulfonate]
